Assay results from patent publication US11072575B1, “Method of preparing a cinnamyl alcohol retinoic acid ester with antioxidant and antibacterial activities” (priority 2020, dated 2021).

Key:
[1] = DPPH radical scavenging activity assay; conditions: for DPPH clearance rate: 30 min, 517 nm, n = 3
Source text: In the DPPH molecule, due to the presence of multiple electron-withdrawing —NO2 and large π bonds of the benzene ring, nitrogen free radical is stabilized. Its methanol solution is purple and has a maximum absorption peak at 517 nm. After the addition of an antioxidant, DPPH captures an electron to be paired with the free electron, and the purple fades and turns into a yellow substance. The absorption at 517 nm disappears, and the degree of fading is quantitatively related to the number of electrons it captures. Based on this principle, a spectrophotometer is used to detect the change of the absorbance of the DPPH radical and the sample solution, and the ability of the sample to provide hydrogen atoms and scavenge free radicals can be measured. […] Vc (positive control), cinnamyl alcohol retinoic acid ester (sample), cinnamyl alcohol (control) and retinoic acid (control). The sample solution was subjected to gradient dilution with toluene, and three sets of controls were separately dissolved in a test tube with a certain amount of toluene to prepare the same concentration gradient as the sample. [table] […] Clearance calculation: Clearance Rate (%)=[1−(Ai−Aj)/Ao]*100%

[2] = tested on: Multi-resistant Pseudomonas aeruginosa 18-202; test: Paper diffusion drug sensitivity test, multi-resistant Pseudomonas aeruginosa 18-202; conditions: for Zone of inhibition: drug sensitive paper 6.35 mm, test drugs 30 μg/tablet, 37° C. 24 h; for Antibacterial effect (in words): summary of Table 4
[3] = tested on: Multi-resistant Staphylococcus aureus 18-596; test: Paper diffusion drug sensitivity test, multi-resistant Staphylococcus aureus 18-596; conditions: for Zone of inhibition: drug sensitive paper 6.35 mm, test drugs 30 μg/tablet, 37° C. 24 h; for Antibacterial effect (in words): summary of Table 4

Compound | DPPH clearance rate ([1]; 1.76 ppm in toluene) | DPPH clearance rate ([1]; 8.80 ppm in toluene) | DPPH clearance rate ([1]; 21.12 ppm in toluene) | DPPH clearance rate ([1]; 42.24 ppm in toluene) | DPPH clearance rate ([1]; 79.20 ppm in toluene) | DPPH clearance rate ([1]; 112.64 ppm in toluene) | DPPH clearance rate ([1]; 281.60 ppm in toluene) | DPPH clearance rate ([1]; 492.80 ppm in toluene) | DPPH clearance rate ([1]; 792.00 ppm in toluene) | DPPH clearance rate ([1]; 915.20 ppm in toluene) | Antioxidant activity (in words) ([1]; summary) | Zone of inhibition [2] | Antibacterial effect (in words) [2] | Zone of inhibition [3] | Antibacterial effect (in words) [3]
CC1=C(/C=C/C(C)=C/C=C/C(C)=C/C(=O)OC/C=C/c2ccccc2)C(C)(C)CCC1 [Cinnamyl alcohol retinoic acid ester, (2E,4E,6E,8E)-cinnamyl 3,7-dimethyl-9-(2,6,6-trimethylcyclohex-1-en-1-yl)nona-2,4,6,8-tetraenoate] | 13.16% | 17.53% | 31.95% | 42.08% | 68.62% | 75.46% | 79.44% | 83.15% | 90.77% | 95.43% | excellent antioxidant activity | 21 mm | strong resistance | 20 mm | strong resistance
OCC=Cc1ccccc1 [Cinnamyl alcohol, cinnamyl alcohol] | 6.89% | 7.95% | 17.86% | 25.71% | 37.96% | 44.56% | 59.23% | 64.94% | 73.54% | 75.82% | – | 6 mm | little inhibitory effect | 14 mm | little inhibitory effect
CC1=C(/C=C/C(C)=C/C=C/C(C)=C/C(=O)O)C(C)(C)CCC1 [Retinoic acid, retinoic acid] | – | – | – | – | – | – | – | – | – | – | – | 7 mm | – | 8 mm | –
CN[C@H](CC(C)C)C(=O)N[C@H]1C(=O)N[C@@H](CC(N)=O)C(=O)N[C@H]2C(=O)N[C@H]3C(=O)N[C@H](C(=O)N[C@H](C(=O)O)c4cc(O)cc(O)c4-c4cc3ccc4O)[C@H](O)c3ccc(c(Cl)c3)Oc3cc2cc(c3O[C@@H]2O[C@H](CO)[C@@H](O)[C@H](O)[C@H]2O[C@H]2C[C@](C)(N)[C@H](O)[C@H](C)O2)Oc2ccc(cc2Cl)[C@H]1O [Vancomycin] | – | – | – | – | – | – | – | – | – | – | – | 9 mm | – | 21 mm | –
O=C1O[C@H]([C@@H](O)CO)C(O)=C1O [Vc] | 23.16% | 33.47% | 79.63% | 89.55% | 97.42% | 97.53% | 98.29% | 99.06% | 99.10% | 99.28% | – | – | – | – | –
Gentamicin | – | – | – | – | – | – | – | – | – | – | – | 21 mm | – | 10 mm | –
